The values that follow come from US7897637B2, “Methods of using flavonoids to enhance memory” (The Salk Institute for Biological Studies, priority 2006, dated 2011).

The test system of one experiment is PC12 cells. In words: PC12 cell differentiation assay (neurite outgrowth). It counts as cell-based. Particulars: for EC50 / Emax: Rattus norvegicus, PC-12, PC12 cells in N2 medium, 24 hours, neurites scored; for EC50: read-out: EC50 (μM), induction of PC12 cell differentiation; for Emax: read-out: Maximal Efficacy, induction of PC12 cell differentiation. As to the method: Four trihydroxyflavones (THF) and three dihydroxyflavones (DHF) which lack one or two, respectively, of the hydroxyl groups found in fisetin were tested for their ability to induce the differentiation of PC12 cells. Differentiation was assessed by scoring neurite outgrowth (Sagara et al., J. Neurochem., 90:1144-1155, 2004). […]
PC12 cells in N2 medium were treated with flavonoids for 24 hours at which time the cells were scored for the presence of neurites. PC12 cells produce neurites much more rapidly when treated in N2 medium than when treated in regular growth medium (Kimura et al., J. Cell Biol., 116:777-83, 1992). For each treatment, 100 cells in each of three separate fields were counted. Cells were scored positive if one or more neurites>1 cell body diameter in length were observed.

For the next experiment, the system named is GSH. In words: Total cellular GSH levels in HT22 cells. It counts as cell-based, mouse. Particulars: 8 hours; for GSH levels in the presence of oxidative stress: 5 mM glutamate. As to the method: The effects of fisetin derivatives on cellular GSH levels was then determined. HT22 cells were untreated (Ct) or treated with 10 μM fisetin, 25 μM 3,3′-DHF, 25 μM 3,4′-DHF, 2.5 μM 3′,4′-DHF, 2.5 μM 3,3′,4′-THF, 25 μM 3,7,3′-THF, 25 μM 3,7,4′-THF or 10 μM 7,3′,4′-THF alone or in the presence of 5 mM glutamate. After 8 hours cellular levels of total GSH were determined as described in Example 4. The GSH level of the control sample (31.5±10 nmoles/mg protein) was taken as 100%.
Total intracellular GSH/GSSG was determined using whole cell lysates from untreated, glutamate treated, flavonoid treated and glutamate plus flavonoid treated cells as described (Maher and Hanneken, Invest. Opthalmol. Vis. Sci., 46:749-57, 2005, herein incorporated by reference as to the method) and normalized to total cellular protein.

In a further experiment the test system is Male C57Bl/6J mice. The experiment is described as follows: Object recognition task. It counts as in vivo. As to conditions: 60 minutes prior to training, vs vehicle. As to the method:
The effect of fisetin, 3,3′,4′-THF, and apigenin (5,7,4′-THF) on memory was tested in mice using an object recognition task (Ennaceur and Delacour, Behav. Brain Res., 31:47-59, 1988). Among the alternatives available for testing memory, this assay has proven very effective for measuring CREB-dependent functions (Prickaerts et al., Neurosci., 113:351-61, 2002; Bourtchouladze et al., Proc. Natl. Acad. Sci. USA, 100:10518-22, 2003). In this test, mice are presented with two identical objects during the training period which they explore for a fixed time period. To test for memory, mice are presented one day later with two different objects, one of which was presented previously during the training and is thus familiar to the mice, and the other that is novel. The better a mouse remembers the familiar object, the more time it will spend exploring the novel object. To test the effects of fisetin, 3,3′,4′-THF, or apigenin (5,7,4′-THF) in this memory task, the respective compound was administered orally to the mice before the start of the training period. Rolipram, a phosphodiesterase inhibitor that potentiates memory in this assay (Bourtchouladze et al., Proc. Natl. Acad. Sci. USA, 100:10518-22, 2003), requires intraperitoneal injection and was used as a positive control.
Male C57Bl/6J mice (Jackson Laboratories) were used and the testing was done by PsychoGenics (Tarrytown, N.Y.). All mice were acclimated to the colony room for at least 2 weeks prior to testing and were tested at an average age of 8 weeks. Mice were randomly assigned across treatment groups with 10 mice in each group. For each dose tested, a 10× solution of fisetin was prepared in 95% ethanol and then diluted with 4 volumes polyethylene glycol 660 hydroxystearate (Solut HS15 from BASF) and 5 volumes phosphate buffered saline. The vehicle was contained the identical ratios of ethanol, Solut HS15 and phosphate buffered saline. All were administered orally 60 minutes prior to training at a volume of 10 ml/kg body weight. Rolipram was dissolved in 10% DMSO and administered intraperitoneally 20 minutes prior to training. The test was performed as previously described by Bourtchouladze et al. (Proc. Natl. Acad. Sci. USA, 100:10518-22, 2003). Briefly, on Day 1 mice were habituated to a circular open field arena for one hour in cage groups of four. Twenty-four (24) hours later, individual mice were placed back in the same arena which now contained two identical objects for a 15 minutes training trial. […] Each animal's test trial was recorded and the first 10 minutes of each session were scored. […] Data were analyzed by a one-way ANOVA followed by post-hoc comparisons with Fisher's test. […]

The test system of the next experiment is ERK. The experiment is described as follows: ERK activation in primary cortical neuron cultures (immunoblotting). Type of experiment: cell-based, rat. Particulars: 10 μM, 30 minutes to 6 hours. As to the method:
(§1) The average phosphoprotein signal from the blots was quantified by densitometry and normalized to total protein,
(§2) Five (5) day old cortical cultures were next pretreated with 50 μM of the MEK inhibitor, PD98059, before the addition of 10 μM fisetin for 4 hours.
(§3) Primary cultures of rat cortical neurons were prepared as previously described by Li et al. (Neuron, 19:453-63, 1997, herein incorporated by reference as to the method). Analysis of ERK and CREB phosphorylation was performed using SDS-polyacrylamide gel electrophoresis and immunoblotting as previously described by Sagara et al. (J. Neurochem., 90:1144-1155, 2004) using equal amounts of protein from 5 day old cortical cultures. Blots were scanned and quantified using NIH Image. Results were analyzed using an unpaired Student's t-test.

The next experiment deals with CREB. In words: CREB activation in primary cortical neuron cultures (immunoblotting). Type of experiment: cell-based, rat. As to conditions: 10 μM, 30 minutes to 6 hours. As to the method:
as §1, §2, §3

Experiment [1] relates to CA1 area of rat hippocampal slices. The experiment is described as follows: Long-term potentiation in CA1 area of hippocampal slices. Type of experiment: cell-based.
For another experiment, the system named is protein kinase A. As to conditions: PC12 cells; Sagara et al. 2004; cited from earlier work.
The mark [2] stands for this setting: weak tetanic stimulation 15 pulses at 100 Hz.

Molecules are shown by their SMILES. “Also recorded” adds a separate entry of the source.

With `O=c1c(O)c(-c2ccc(O)c(O)c2)oc2ccccc12` [3,3′,4′-THF, 3,3′,4′-trihydroxyflavone], in the experiment on PC12 cells (PC12 cells), the “ability to induce differentiation” value was “most effective of those tested”. Besides, in the experiment on PC12 cells, the 50% effective concentration (EC50) worked out at 2.5 µM and the Emax fell in the range of 80 to 90%. The “differentiation of the PC12 cells” value with PC12 cells (concentration of 5 μM) is recorded as greater than 80%. Also, in the experiment with GSH, the “GSH levels in the presence of oxidative stress” value is “able to maintain GSH levels”. In the experiment with Male C57Bl/6J mice (25 mg/kg oral), the object recognition entry is “significantly increased object recognition”.
As for `O=c1cc(-c2ccc(O)c(O)c2)oc2ccccc12` [3′,4′-DHF, 3′,4′-dihydroxyflavone], in the experiment with PC12 cells, the half-maximal effective concentration (EC50) amounted to 10 µM and the Emax is 40 to 50%. For the same molecule, the “GSH levels in the presence of oxidative stress” value with GSH is “could not maintain GSH levels”. The “basal levels of GSH” value with GSH (flavonoid alone) is on record as “raised the basal levels of GSH”.
For `O=c1c(O)c(-c2ccc(O)c(O)c2)oc2cc(O)ccc12` [fisetin, 3,3′,4′,7-tetrahydroxyflavone], in the experiment with PC12 cells, the EC50 is 5 µM and the Emax was 70 to 80%. For the same molecule, the ERK activation entry with ERK was “induced ERK activation”. For the same molecule, the CREB activation result with CREB is “enhanced CREB activation”. Besides, the “induction of LTP following weak tetanic stimulation” value in experiment [1] (15 pulses at 100 Hz, fisetin 20 minutes prior to, during and after) is on record as “LTP was induced; also recorded: facilitates the induction of LTP”. Moreover, the “effect on APV-dependent inhibition of excitatory postsynaptic potentials” value in experiment [1] (in the presence of APV) is listed as “no effect”. In experiment [1] (no tetanus), the “effect on basal synaptic transmission” value was “no direct effect”. Also, in experiment [1] (setting [2]), the “maximal effective dose for facilitation of LTP induction” value worked out at 1 µM and the “persistence of facilitated LTP” value was “at least 60 minutes”. In addition, in the experiment on Male C57Bl/6J mice (10 mg/kg oral), the object recognition result is “significant effects”. Further, the object recognition result with Male C57Bl/6J mice (25 mg/kg oral) was “significant effects”. Further, the “activation of the cAMP target protein kinase A” value with protein kinase A was “does not result in the activation”.

What is called EC50 is the concentration at which the effect is half-maximal.
